# Laboratory results taken from paper PMC4022547 (Molecular Brain, 2014).
# Assays:
# Assay in all cases: Oocyte two-electrode voltage clamp
# Type in all cases: cell-based
# hα6 + hβ4 + hβ3 nAChR = hα6 + hβ4 + hβ3 nAChR (Homo sapiens, UniProt P30926+Q15825)
# Experimental: (§1) We planned to introduce identical amounts of cRNA, presumably producing equal amounts of each subunit protein, into oocytes largely due to lack of information about the levels of mRNA for each subunits that compose α6*-nAChRs in neurons or other cells. Concentrations of cRNAs for each nAChR α and β subunits (WT, mutant or variant) were adjusted to 500 ng μL^−1. We provisionally assumed that hα6 or its variants in association with hβ2 or hβ4 subunits would form complexes having 2:3 and/or 3:2 ratios of the indicated subunits and that oocytes also injected with WT or mutant form of β3 subunits (i.e., β3^V9’S) would express nAChR with 2:2:1 ratios of α:β:(β3 or β3^V9’S) subunits. For expression of binary nAChRs (i.e., two subunit containing nAChRs; α + β but not β3) cRNA mixtures were prepared by mixing 1 μL of cRNA for each subunit and an additional μL of RNAse free water (i.e., total volume 3 μL). Similarly for expression of ternary nAChRs [i.e., three subunit containing nAChRs; (α + β) + (β3 or β3^V9’S)] cRNA mixtures were prepared by mixing 1 μL of cRNA for each subunit. Several preparations of each mixture were prepared and stored at −80°C until further use. Injection of 138 nL of cRNA, out of 3 μL cRNA mixtures, into each oocyte would deliver ~23 ng of cRNA for each subunit whether binary or ternary nAChRs are expressed.
# (§2) Two to 5 days after injection, oocytes were placed in a small-volume chamber and continuously perfused with OR2. The chamber was grounded through an agarose bridge. The oocytes were voltage-clamped at −70 mV (unless otherwise noted) to measure agonist or antagonist induced currents using Axoclamp 900A and pClamp 10.2 software (Molecular Devices, Sunnyvale, CA). The current signal was low-pass filtered at 10 Hz with the built-in low-pass Bessel filter in the Axoclamp 900A and digitized at 20 Hz with Axon Digidata1440A and pClamp10. […] Drugs (agonists and antagonists) were prepared daily in OR2. Drug was applied using a Valvelink 8.2 perfusion system (Automate scientific, Berkeley, CA). […] Then for the purpose of comparison electrophysiological recordings were performed in a given day in a given batch of oocytes following the same order of injections. […] All hβ4*-nAChR recordings were done in similar conditions to facilitate comparisons between hα6hβ4- and hα6hβ4hβ3-nAChRs. All electrophysiological measurements were conducted or checked in at least two batches of oocytes.
# (§3) Raw data was collected and processed in part using pClamp 10.2 (Molecular Devices, Sunnyvale, CA), Origin 7.5 (OriginLab Corporation, Northampton, MA) and a spreadsheet (Excel; Microsoft, Bellevue, WA). Peak current amplitudes (Imax) are reported as mean ± SEM (for results from at least three oocytes, i.e., n = 3).
# hα6 + hβ4 nAChR = hα6 + hβ4 nAChR (Homo sapiens, UniProt P30926+Q15825)
# Experimental: as §1, §2, §3
# [1] = biological target: hα6(A184D) + hβ4 + hβ3 nAChR (Homo sapiens, UniProt P30926+Q15825, A184D)
# Experimental: as §1, §2, §3
# hα6(A184D) + hβ4 nAChR = hα6(A184D) + hβ4 nAChR (Homo sapiens, UniProt P30926+Q15825, A184D)
# Experimental: as §1, §2, §3
# [2] = biological target: hα6(D199Y) + hβ4 + hβ3 nAChR (Homo sapiens, UniProt P30926+Q15825, D199Y)
# Experimental: as §1, §2, §3
# hα6(D199Y) + hβ4 nAChR = hα6(D199Y) + hβ4 nAChR (Homo sapiens, UniProt P30926+Q15825, D199Y)
# Experimental: as §1, §2, §3
# [3] = biological target: T1, hα6(R87C) + WT hβ2 + hβ3^V9’S nAChR (Homo sapiens, UniProt P17787+Q15825, R87C)
# T1 construct: Full length capped mRNA (i.e., cRNA) was transcribed from linearized plasmids; expressed in transfected cells; host or cells: Xenopus laevis oocytes injected with cRNA
# Experimental: as §1, §2, §3
# [4] = biological target: T2, hα6(R96H) + hβ4 + hβ3 nAChR (Homo sapiens, UniProt P30926+Q15825, R96H)
# T2 construct: Full length capped mRNA (i.e., cRNA) was transcribed from linearized plasmids; expressed in transfected cells; host or cells: Xenopus laevis oocytes injected with cRNA
# Experimental: as §1, §2, §3
# hα6(R96H) + hβ4 nAChR = biological target: T3, hα6(R96H) + hβ4 nAChR (Homo sapiens, UniProt P30926+Q15825, R96H)
# T3 construct: Full length capped mRNA (i.e., cRNA) was transcribed from linearized plasmids; expressed in transfected cells; host or cells: Xenopus laevis oocytes injected with cRNA
# Experimental: as §1, §2, §3
# [5] = biological target: hα6(S233C) + hβ4 + hβ3 nAChR (Homo sapiens, UniProt P30926+Q15825, S233C)
# Experimental: as §1, §2, §3
# hα6(S233C) + hβ4 nAChR = hα6(S233C) + hβ4 nAChR (Homo sapiens, UniProt P30926+Q15825, S233C)
# Experimental: as §1, §2, §3
# [6] = 100 μM nicotine, oocytes clamped at −70 mV
# T2 sequence (Q15825 26-494 R96H): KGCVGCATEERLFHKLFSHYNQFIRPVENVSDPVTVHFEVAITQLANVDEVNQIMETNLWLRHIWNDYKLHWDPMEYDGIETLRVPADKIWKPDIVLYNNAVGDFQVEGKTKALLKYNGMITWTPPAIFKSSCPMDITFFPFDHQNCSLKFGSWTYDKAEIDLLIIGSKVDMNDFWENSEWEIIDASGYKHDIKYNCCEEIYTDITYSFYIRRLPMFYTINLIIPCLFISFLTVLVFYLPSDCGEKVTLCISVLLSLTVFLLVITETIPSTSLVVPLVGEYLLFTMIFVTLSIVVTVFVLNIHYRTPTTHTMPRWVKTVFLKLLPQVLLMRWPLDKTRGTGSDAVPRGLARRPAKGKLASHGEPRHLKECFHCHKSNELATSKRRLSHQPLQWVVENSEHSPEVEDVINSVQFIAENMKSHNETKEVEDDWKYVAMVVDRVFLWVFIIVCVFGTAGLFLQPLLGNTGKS
# T2 sequence (P30926 22-498, stated change not applied): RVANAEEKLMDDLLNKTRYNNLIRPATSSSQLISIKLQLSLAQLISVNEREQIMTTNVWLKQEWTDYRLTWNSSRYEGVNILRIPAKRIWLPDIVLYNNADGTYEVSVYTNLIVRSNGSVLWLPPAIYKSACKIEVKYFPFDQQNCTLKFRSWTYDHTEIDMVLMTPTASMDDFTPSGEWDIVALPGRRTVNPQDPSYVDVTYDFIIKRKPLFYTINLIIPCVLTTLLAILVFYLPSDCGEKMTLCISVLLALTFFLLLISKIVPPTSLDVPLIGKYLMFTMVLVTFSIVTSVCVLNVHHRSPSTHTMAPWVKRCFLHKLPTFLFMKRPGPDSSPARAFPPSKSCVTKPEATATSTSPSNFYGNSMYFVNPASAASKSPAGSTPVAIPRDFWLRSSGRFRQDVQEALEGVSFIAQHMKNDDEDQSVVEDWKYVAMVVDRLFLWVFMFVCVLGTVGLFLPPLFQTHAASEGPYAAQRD
# T2 sequence (Q05901 25-458 partner limits assumed): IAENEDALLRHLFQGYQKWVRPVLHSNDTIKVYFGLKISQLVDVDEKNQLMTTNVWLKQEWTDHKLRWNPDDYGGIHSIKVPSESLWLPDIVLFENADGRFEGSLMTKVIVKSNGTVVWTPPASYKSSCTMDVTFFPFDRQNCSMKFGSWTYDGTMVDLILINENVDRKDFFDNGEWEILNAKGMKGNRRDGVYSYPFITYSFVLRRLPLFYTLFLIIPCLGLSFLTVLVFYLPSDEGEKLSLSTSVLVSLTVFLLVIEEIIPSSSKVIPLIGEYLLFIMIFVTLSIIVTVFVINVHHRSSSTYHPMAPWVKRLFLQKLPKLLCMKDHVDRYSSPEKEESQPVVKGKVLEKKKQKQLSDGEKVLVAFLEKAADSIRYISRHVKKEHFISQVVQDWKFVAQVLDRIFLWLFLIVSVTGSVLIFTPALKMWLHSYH
# Sequence of hα6 + hβ4 + hβ3 nAChR (Q15825 26-494): as the sequence (Q15825 26-494 R96H) above, with H71R counted along it
# Sequence of hα6 + hβ4 + hβ3 nAChR (P30926 22-498): as the sequence (P30926 22-498, stated change not applied) above
# Sequence of hα6 + hβ4 + hβ3 nAChR (Q05901 25-458 partner limits assumed): as the sequence (Q05901 25-458 partner limits assumed) above
# Sequence of hα6(D199Y) + hβ4 + hβ3 nAChR (Q15825 26-494 D199Y): as the sequence (Q15825 26-494 R96H) above, with H71R, D174Y counted along it
# Sequence of hα6(D199Y) + hβ4 + hβ3 nAChR (P30926 22-498): as the sequence (P30926 22-498, stated change not applied) above
# Sequence of hα6(D199Y) + hβ4 + hβ3 nAChR (Q05901 25-458 partner limits assumed): as the sequence (Q05901 25-458 partner limits assumed) above
# Sequence of hα6(D199Y) + hβ4 nAChR (Q15825 26-494 D199Y): as the sequence (Q15825 26-494 R96H) above, with H71R, D174Y counted along it
# Sequence of hα6(D199Y) + hβ4 nAChR (P30926 22-498): as the sequence (P30926 22-498, stated change not applied) above
# Sequence of hα6(S233C) + hβ4 + hβ3 nAChR (Q15825 26-494 S233C): as the sequence (Q15825 26-494 R96H) above, with H71R, S208C counted along it
# Sequence of hα6(S233C) + hβ4 + hβ3 nAChR (P30926 22-498): as the sequence (P30926 22-498, stated change not applied) above
# Sequence of hα6(S233C) + hβ4 + hβ3 nAChR (Q05901 25-458 partner limits assumed): as the sequence (Q05901 25-458 partner limits assumed) above
# Sequence of hα6(S233C) + hβ4 nAChR (Q15825 26-494 S233C): as the sequence (Q15825 26-494 R96H) above, with H71R, S208C counted along it
# Sequence of hα6(S233C) + hβ4 nAChR (P30926 22-498): as the sequence (P30926 22-498, stated change not applied) above
# Sequence of hα6(A184D) + hβ4 nAChR (Q15825 26-494 A184D): as the sequence (Q15825 26-494 R96H) above, with H71R, A159D counted along it
# Sequence of hα6(A184D) + hβ4 nAChR (P30926 22-498): as the sequence (P30926 22-498, stated change not applied) above
# Sequence of hα6(A184D) + hβ4 + hβ3 nAChR (Q15825 26-494 A184D): as the sequence (Q15825 26-494 R96H) above, with H71R, A159D counted along it
# Sequence of hα6(A184D) + hβ4 + hβ3 nAChR (P30926 22-498): as the sequence (P30926 22-498, stated change not applied) above
# Sequence of hα6(A184D) + hβ4 + hβ3 nAChR (Q05901 25-458 partner limits assumed): as the sequence (Q05901 25-458 partner limits assumed) above
# T1 sequence (Q15825 26-494 R87C): as the sequence (Q15825 26-494 R96H) above, with R62C, H71R counted along it
# T1 sequence (P17787 26-502): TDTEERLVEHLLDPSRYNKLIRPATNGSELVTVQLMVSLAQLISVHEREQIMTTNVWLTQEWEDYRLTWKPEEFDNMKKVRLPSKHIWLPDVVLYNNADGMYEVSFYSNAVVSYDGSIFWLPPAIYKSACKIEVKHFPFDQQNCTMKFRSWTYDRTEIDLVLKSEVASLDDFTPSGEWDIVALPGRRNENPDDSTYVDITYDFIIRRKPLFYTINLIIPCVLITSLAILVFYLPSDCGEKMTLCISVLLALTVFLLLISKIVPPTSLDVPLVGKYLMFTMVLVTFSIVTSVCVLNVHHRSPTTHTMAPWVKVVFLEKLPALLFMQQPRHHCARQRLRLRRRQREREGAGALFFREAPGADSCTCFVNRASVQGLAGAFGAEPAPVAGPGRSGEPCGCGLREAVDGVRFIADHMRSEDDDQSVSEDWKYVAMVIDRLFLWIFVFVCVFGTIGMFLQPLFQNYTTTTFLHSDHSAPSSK
# T1 sequence (Q05901 25-458 V273S partner limits assumed): as the sequence (Q05901 25-458 partner limits assumed) above, with V249S counted along it
# T3 sequence (Q15825 26-494 R96H): as the sequence (Q15825 26-494 R96H) above
# T3 sequence (P30926 22-498, stated change not applied): as the sequence (P30926 22-498, stated change not applied) above
# Sequence of hα6 + hβ4 nAChR (Q15825 26-494): as the sequence (Q15825 26-494 R96H) above, with H71R counted along it
# Sequence of hα6 + hβ4 nAChR (P30926 22-498): as the sequence (P30926 22-498, stated change not applied) above
smiles,measurement,setting,value
"CN1CCC[C@H]1c1cccnc1 [nicotine, L-nicotine]",EC50,hα6 + hβ4 + hβ3 nAChR,12 µM
same,Imax conc. (concentration where maximal peak current achieved),hα6 + hβ4 + hβ3 nAChR,100 µM
same,nH ± SE (Hill coefficient),hα6 + hβ4 + hβ3 nAChR,1.5±0.45
same,increase of peak current response relative to hα6hβ4-nAChRs,hα6 + hβ4 + hβ3 nAChR; 100 μM nicotine,~ 12 fold
same,Mean (±SE) peak current response,hα6 + hβ4 + hβ3 nAChR; [6],407 ± 34 nA
same,Imax conc. (concentration where maximal peak current achieved),hα6 + hβ4 nAChR,100 µM
same,"peak current (Imax, mean ± SE)",hα6 + hβ4 nAChR; [6],35 ± 2 nA
same,EC50,[1],4.9 µM
same,Imax conc. (concentration where maximal peak current achieved),[1],100 µM
same,nH ± SE (Hill coefficient),[1],1.1±0.11
same,Mean (±SE) peak current response,[1]; [6],554 ± 108 nA
same,EC50,hα6(A184D) + hβ4 nAChR,2700 nM
same,Imax conc. (concentration where maximal peak current achieved),hα6(A184D) + hβ4 nAChR,100 µM
same,nH ± SE (Hill coefficient),hα6(A184D) + hβ4 nAChR,1.1±0.15
same,"peak current (Imax, mean ± SE)",hα6(A184D) + hβ4 nAChR; [6],122 ± 12 nA
same,EC50,[2],11 µM
same,Imax conc. (concentration where maximal peak current achieved),[2],100 µM
same,nH ± SE (Hill coefficient),[2],1.5±0.42
same,Mean (±SE) peak current response,[2]; [6],276 ± 47 nA
same,EC50,hα6(D199Y) + hβ4 nAChR,4.4 µM
same,Imax conc. (concentration where maximal peak current achieved),hα6(D199Y) + hβ4 nAChR,100 µM
same,nH ± SE (Hill coefficient),hα6(D199Y) + hβ4 nAChR,1.1±0.26
same,"peak current (Imax, mean ± SE)",hα6(D199Y) + hβ4 nAChR; [6],90 ± 11 nA
same,current response,"[3]; ACh, nicotine or atropine, hβ2 type not specified",not obtained
same,current response,[3]; nicotine,did not yield current responses
same,EC50,[4],8.2 µM
same,Imax conc. (concentration where maximal peak current achieved),[4],100 µM
same,nH ± SE (Hill coefficient),[4],1.2±0.13
same,Mean (±SE) peak current response,[4]; [6],513 ± 42 nA
same,Imax conc. (concentration where maximal peak current achieved),hα6(R96H) + hβ4 nAChR,100 µM
same,"peak current (Imax, mean ± SE)",hα6(R96H) + hβ4 nAChR; [6],73 ± 10 nA
same,EC50,[5],6.9 µM
same,Imax conc. (concentration where maximal peak current achieved),[5],100 µM
same,nH ± SE (Hill coefficient),[5],1.4±0.12
same,Mean (±SE) peak current response,[5]; [6],536 ± 66 nA
same,EC50,hα6(S233C) + hβ4 nAChR,6.2 µM
same,Imax conc. (concentration where maximal peak current achieved),hα6(S233C) + hβ4 nAChR,100 µM
same,nH ± SE (Hill coefficient),hα6(S233C) + hβ4 nAChR,1.4±0.13
same,"peak current (Imax, mean ± SE)",hα6(S233C) + hβ4 nAChR; [6],73 ± 20 nA
